Results: patent publication US20020128269A1, “Substituted heterocyclic compounds for treating multidrug resistance” (priority 2000, published 2002)

System: NIH-MDR1-G185 cells
Assay: Fluorescent Substrate Accumulation Assay (BODIPY-FL Taxol accumulation)
Assay type: cell-based
Conditions: fluorescence in NIH-MDR1-G185 cells in presence / absence of modulator; BODIPY-FL Taxol 500 nM, 40 min at 37° C; modulator final concentration of 10 microliters (so in the source)
Method: NIH-MDR1-G185 cells (obtained from M. Gottesman, NIH) were harvested and resuspended in RPMI-1640 containing L-glutamine, 10% Cosmic Calf Serum and penicillin-streptomycin. Cell suspension aliquots of 175 microliters (1×10^5 cells) were added to individual wells of a 96 well microtiter plate and preincubated for 15 min at 37° C with 20 microliters MDR modulator diluted in cell culture media to give a final concentration of 10 microliters. Control wells received no modulating agent. BODIPY-FL Taxol (Molecular Probes, Eugene, Oreg.) was added to each well in 10 microliter aliquots to give a final concentration of 500 nM and cells were incubated for 40 min at 37° C. Cells were centrifuged at 100× g for 5 min at 4° C. and the cell pellet washed with 200 microliters cold PBS to remove fluorescent medium from wells. Cells were centrifuged once more, media removed, and cells resuspended in 200 microliters cold PBS. Fluorescence accumulation was measured in a fluorescence plate reader fitted with an excitation filter of 485 nm and an emission filter of 538 nm. BODIPY-FL taxol accumulation in the cells was calculated as follows:
Accumulation Index=(fluorescence in NIH-MDR1-G185 cells in the presence of modulator )/(fluorescence in NIH-MDR1-G185 cells in absence of modulator)
Accumulation Index of various compounds prepared above was tested according to the method in Reference Example 3.

O=C(NC(CCCc1ccccc1)CCCc1ccccc1)C1CN(C[C@@H](O)COc2cccc3ncccc23)CCN1C(=O)COCc1ccccc1 (stereo partly drawn) [Compound 38, 1-(Benzyloxyacetyl)-4-{1-[2-(R)-hydroxy-3-(quinolin-5-yloxy)-propyl]}-piperazine-2-carboxylic Acid [4-phenyl-1-(3-phenyl-propyl)-butyl]-amide]
Accumulation Index: 5
